Laboratory results from patent publication US10335446B2, “Methods of treating diseases using grape proteins” (priority 2015, dated 2019).
Values joined by “and” are separate entries in the source; they are usually repeats but may differ in a detail not shown here. Equal entries are not always repeated. Where two headings read alike, the source gives them in different places. Marks after values point to notes of the source that are not given here.

Key:
[1] = system: MDA-MB-436 human breast cancer; experiment: Subcutaneous MDA-MB-436 human breast cancer xenograft model, tumor volume and weight; type: in vivo, female BALB/c nude mice
Method: The in vivo anti-tumor efficacy of KHJ, KH103, and KHGD in the subcutaneous MDA-MB-436 human breast cancer model in female BALB/c nude mice was evaluated.
The animals used were of the species Mus musculus, strain BALB/c nude, age 6-8 weeks, and female. The body weight was 18-22 g. The number of animals was 90 mice, plus spare. The animal supplier was Shanghai BK Laboratory Animal Co., LTD.
The tumor cells were routinely subcultured twice weekly by trypsin-EDTA treatment.
Each mouse was inoculated subcutaneously at the right flank with MDA-MB-436 tumor cells (1×10^7) in 0.1 ml of PBS supplemented with BD Matrigel (1:1) for tumor development. The prophylactic treatments were started 13 days before inoculation. The therapeutic treatments were started on day 9 after tumor inoculation when the average tumor size reached approximately 81 mm^3. Each group consisted of 10 tumor-bearing mice. The testing article was administrated to the mice according to the predetermined regimen as shown in the experimental design Table 21 (prophylactic) and Table 22 (therapeutic).
The major endpoint was to see if the tumor growth could be delayed or mice could be cured. Tumor size was measured twice weekly in two dimensions using a caliper, and the volume was expressed in mm^3 using the formula: V=0.5 a×b^2 where a and b are the long and short diameters of the tumor, respectively. The tumor size was then used for calculations of both T-C and T/C values. T-C was calculated with T as the time (in days) required for the mean volume of treatment group tumors to reach 600 mm^3, and C as the time (in days) for the mean volume of control group tumors to reach the same size. The T/C value (in percent) is an indication of antitumor effectiveness; T and C are the mean volumes of the treated and control groups, respectively, on a given day.
ΔTGI was calculated for each group using the formula: ΔTGI (%)=[1−(Ti−T0)/(Vi−V0)]×100; Ti is the average tumor volume of a treatment group on a given day, T0 is the average tumor volume of the treatment group on the day of treatment start, Vi is the average tumor volume of the vehicle control group on the same day with Ti, and V0 is the average tumor volume of the vehicle group on the day of treatment start.
Tumor pictures were taken and tumor weight was measured at the study termination. T/Cweight value (in percent) was calculated using the formula: T/Cweight%=Tweight/Cweight×100% where Tweight and Cweight were the mean tumor weights of the treated and vehicle control groups, respectively.
Statistical analyses of differences in tumor volume and tumor weight among the groups were conducted on the data obtained when the average tumor volume of vehicle-therapeutic group reached 2,000 mm^3 (Day 71 after inoculation).
One-way ANOVA was performed to compare tumor volume and tumor weight among groups, and when a significant F-statistics (a ratio of treatment variance to the error variance) was obtained, comparisons between groups were carried out with Dunnett t-tests.

[2] = type: in vivo, female BALB/c nude mice
Method: At the time of routine monitoring, the animals were daily checked for any effects of tumor growth and treatments on normal behavior such as mobility, food and water consumption (by looking only), body weight gain/loss (body weights were measured twice weekly), eye/hair matting and any other abnormal effect as stated in the protocol. Death and observed clinical signs were recorded on the basis of the numbers of animals within each subset.
Animal body weight was monitored regularly as an indirect measure of toxicity (FIG. 54A-B). No group lost weight as a result of test article administration, except the prophylactic KHGD Group 4 which was found with sign of emaciation and dehydration due to the 3 days' whole-day supply of KHGD.

Molt-4-luc leukemia = type: in vivo
Method: Temperature and relative humidity were monitored daily.
The tumor cells were routinely subcultured twice weekly.
Whole body and metastatic bioluminescence were measured and recorded.
Tumor growth curve was plotted with median relative bioluminescence.

[3] = Diet-induced obesity (DIO) mice study: blood glucose, insulin, plasma lipids, body weight, food intake; type: in vivo, C57BL/6J male mice; conditions: Atorvastatin 20 mg/kg, test articles tid po 10 mL/kg + ad libitum
3T3-L1 adipocytes = experiment: Glucose uptake assay (2-deoxy-D-[3H]-glucose) in 3T3-L1 adipocytes; type: cell-based; conditions: for EC50: read-out: Insulin EC50
[4] = day 111 after the cell injection, positive control, treatment right after cell injection, of 6 mice
[5] = 2014 Aug. 27, insulin dose 0.01 nM
[6] = 2014 Aug. 27, insulin dose 0.03 nM
[7] = 2014 Aug. 27, insulin dose 0.09 nM
[8] = 2014 Aug. 27, insulin dose 0.27 nM
[9] = 2014 Aug. 27, insulin dose 7.41 nM
[10] = 2014 Aug. 27, insulin dose 22.2 nM
[11] = 2014 Aug. 27, insulin dose 66.7 nM
[12] = 2014 Aug. 27, insulin dose 200 nM
[13] = 2014 Aug. 28, insulin dose 0.27 nM
[14] = 2014 Aug. 28, insulin dose 2.47 nM
[15] = 2014 Aug. 28, insulin dose 7.41 nM
[16] = 2014 Aug. 28, insulin dose 22.2 nM
[17] = 2014 Aug. 28, insulin dose 66.7 nM
[18] = 2014 Aug. 28, insulin dose 200 nM
[19] = 2014 Jul. 11, insulin dose 0.82 nM
[20] = 2014 Jul. 11, insulin dose 7.41 nM
[21] = 2014 Jul. 11, insulin dose 22.22 nM
[22] = 2014 Jul. 11, insulin dose 66.67 nM
[23] = 2014 Jul. 11, insulin dose 200 nM
[24] = 2014 Jul. 14, insulin dose 0.09 nM
[25] = 2014 Jul. 14, insulin dose 0.82 nM
[26] = 2014 Jul. 14, insulin dose 2.47 nM
[27] = 2014 Jul. 14, insulin dose 7.41 nM
[28] = 2014 Jul. 14, insulin dose 22.2 nM
[29] = 2014 Jul. 14, insulin dose 66.7 nM
[30] = 2014 Jul. 14, insulin dose 200 nM
[31] = Insulin dose 0.09 nM, duplicates
[32] = Insulin dose 7.41 nM, duplicates
[33] = Insulin dose 22.2 nM, duplicates
[34] = Insulin dose 66.7 nM, duplicates
[35] = Insulin dose 200 nM, duplicates

## CC(=O)O[C@H]1C(=O)[C@@]2(C)[C@H]([C@H](OC(=O)c3ccccc3)[C@]3(O)C[C@H](OC(=O)[C@H](O)[C@@H](NC(=O)c4ccccc4)c4ccccc4)C(C)=C1C3(C)C)[C@]1(OC(C)=O)CO[C@@H]1C[C@@H]2O [Paclitaxel]
[1]; therapeutic arm, Mean ± SEM at day 71 after inoculation
  Tumor Size at day 71: 637 ± 211 mm^3
[1]; therapeutic arm, Mean ± SEM at day 78 after inoculation
  Tumor Weight at day 78: 0.67 ± 0.23 g
[1]; therapeutic arm, day 71
  ΔTGI: 71%
[1]; therapeutic arm, tumor growth delay at tumor size 600 mm^3
  T-C at 600 mm^3: 23 days
[1]; therapeutic arm, tumor volume at day 71 vs vehicle-therapeutic
  T/C: 31%
[1]; therapeutic arm, tumor weight at day 78 vs vehicle-therapeutic
  T/Cweight: 39.6%
[1]; therapeutic arms
  antitumor activity: statistically significant antitumor activity
[1]; therapeutic arms, compared with the vehicle group
  tumor growth delay at tumor size of 600 mm^3: 23 days
[1]; therapeutic arms, day 71
  T/C value: 31%
[1]; therapeutic arms, day 71 after tumor inoculation, vehicle 2,025, Paclitaxel 1.5 mg/kg, BIW×9 weeks
  mean tumor size: 637 mm^3
[2]; Group 6, days after the start of therapeutic treatment, possibly due to drug toxicity
  mortality: died on day 20 and day 63
[2]; mouse, in vivo
  BWL > 20%: 0
[2]; therapeutic arm
  Subtotal mice# lost/N: 2/10
[2]; therapeutic arm, number of animals, n=10
  mortality: 2^a (D20, 63)^b

## O=P1(N(CCCl)CCCl)NCCCO1 (stereo not shown) [Cyclophosphamide]
Molt-4-luc leukemia; all mice of the group
  survival until day 150: died
Molt-4-luc leukemia; day 50 after cell implantation, treatment given right after cell injection (therapeutic / positive control group), vehicle 153.43
  median relative bioluminescence: 1.40
Molt-4-luc leukemia; [4]
  Animals # with bioluminescence signal: 1
  Survival animals #: 5
Molt-4-luc leukemia; day 111 after the cell injection, six mice per group, vehicle: two mice died
  survival of mice: one mouse died
Molt-4-luc leukemia; mouse, in vivo
  day at which one mouse died: 57 days

## CC(C)c1c(C(=O)Nc2ccccc2)c(-c2ccccc2)c(-c2ccc(F)cc2)n1CC[C@@H](O)C[C@@H](O)CC(=O)O [Atorvastatin]
[3]
  body weight of the DIO mice: significantly decrease
[3]; DIO mice, 0-8 weeks
  blood glucose level: significantly decrease
  insulin sensibility: significantly increase

## Insulin
3T3-L1 adipocytes; [5]
  % Activity: 5% and 6%
  Count: 2169 and 2178
3T3-L1 adipocytes; [6]
  % Activity: −8% and −12%
  Count: 2065 and 2030
3T3-L1 adipocytes; [7]
  % Activity: 6% and 4%
  Count: 2177 and 2166
3T3-L1 adipocytes; [8]
  % Activity: 2% and −7%
  Count: 2145 and 2075
3T3-L1 adipocytes; 2014 Aug. 27, insulin dose 0.82 nM
  Count: 2390 and 2146
3T3-L1 adipocytes; 2014 Aug. 27, insulin dose 2.47 nM
  Count: 2131 and 2284
3T3-L1 adipocytes; [9]
  % Activity: 54% and 42%
  Count: 2579 and 2483
3T3-L1 adipocytes; [10]
  % Activity: 53% and 61%
  Count: 2573 and 2636
3T3-L1 adipocytes; [11]
  % Activity: 90% and 93%
  Count: 2877 and 2903
3T3-L1 adipocytes; [12]
  % Activity: 52% and 59%
  Count: 2565 and 2617
3T3-L1 adipocytes; 2014 Aug. 28, insulin dose 0.01 nM
  Count: 1918 and 2052
3T3-L1 adipocytes; 2014 Aug. 28, insulin dose 0.03 nM
  Count: 2281 and 2003
3T3-L1 adipocytes; 2014 Aug. 28, insulin dose 0.09 nM
  Count: 2130 and 2378
3T3-L1 adipocytes; [13]
  % Activity: 19% and 24%
  Count: 2258 and 2306
3T3-L1 adipocytes; 2014 Aug. 28, insulin dose 0.82 nM
  Count: 2111 and 2261
3T3-L1 adipocytes; [14]
  % Activity: 13% and 22%
  Count: 2208 and 2286
3T3-L1 adipocytes; [15]
  % Activity: 39% and 41%
  Count: 2427 and 2442
3T3-L1 adipocytes; [16]
  % Activity: 84% and 48%
  Count: 2812 and 2503
3T3-L1 adipocytes; [17]
  % Activity: 75% and 85%
  Count: 2736 and 2827
3T3-L1 adipocytes; [18]
  % Activity: 85% and 56%
  Count: 2813 and 2574
3T3-L1 adipocytes; 2014 Jul. 11, insulin dose 0.09 nM
  Count: 760 and 587
3T3-L1 adipocytes; 2014 Jul. 11, insulin dose 0.27 nM
  Count: 709 and 761
3T3-L1 adipocytes; [19]
  % Activity: 28% and 17%
  Count: 800 and 746
3T3-L1 adipocytes; 2014 Jul. 11, insulin dose 2.47 nM
  Count: 736 and 828
3T3-L1 adipocytes; [20]
  % Activity: 47% and 70%
  Count: 884 and 992
3T3-L1 adipocytes; [21]
  % Activity: 47% and 72%
  Count: 887 and 1000
3T3-L1 adipocytes; [22]
  % Activity: 68% and 72%
  Count: 979 and 1000
3T3-L1 adipocytes; [23]
  % Activity: 68% and 70%
  Count: 980 and 989
3T3-L1 adipocytes; [24]
  % Activity: 3% and 11%
  Count: 1033 and 1075
3T3-L1 adipocytes; 2014 Jul. 14, insulin dose 0.27 nM
  Count: 1118 and 1018
3T3-L1 adipocytes; [25]
  % Activity: 12%
  Count: 1082 and 1083
3T3-L1 adipocytes; [26]
  % Activity: 55% and 32%
  Count: 1317 and 1191
3T3-L1 adipocytes; [27]
  % Activity: 59% and 41%
  Count: 1335 and 1238
3T3-L1 adipocytes; [28]
  % Activity: 61% and 63%
  Count: 1347 and 1362
3T3-L1 adipocytes; [29]
  % Activity: 64% and 42%
  Count: 1364 and 1243
3T3-L1 adipocytes; [30]
  % Activity: 97% and 106%
  Count: 1545 and 1591
3T3-L1 adipocytes; Insulin dose 0.03 nM, duplicates
  Count: 2039 and 1067
3T3-L1 adipocytes; [31]
  % Activity: −3% and −4%
  Count: 2101 and 2091
3T3-L1 adipocytes; Insulin dose 0.27 nM, duplicates
  Count: 2196 and 2340
3T3-L1 adipocytes; Insulin dose 0.82 nM, duplicates
  Count: 2069 and 2263
3T3-L1 adipocytes; [32]
  % Activity: 31% and 39%
  Count: 2395 and 2466
3T3-L1 adipocytes; [33]
  % Activity: 58% and 63%
  Count: 2633 and 2673
3T3-L1 adipocytes; [34]
  % Activity: 70% and 61%
  Count: 2736 and 2660
3T3-L1 adipocytes; [35]
  % Activity: 80% and 62%
  Count: 2820 and 2663
3T3-L1 adipocytes; run of 2014 Aug. 27
  EC50: 2.54 nM
3T3-L1 adipocytes; run of 2014 Aug. 28
  EC50: 6.94 nM
3T3-L1 adipocytes; run of 2014 Aug. 29
  EC50: 6.66 nM
3T3-L1 adipocytes; run of 2014 Jul. 11
  EC50: 3.96 nM
3T3-L1 adipocytes; run of 2014 Jul. 14
  EC50: 2.46 nM
